Reference: PubChem BioAssay AID179 (DTP/NCI, 2004)
Where “and” joins values, the source holds several entries; their conditions need not be identical. Equal values may be shown once. Calls of active or inactive are those of the source.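 The calls were made as follows: active = compounds giving half or more protection of infected cells from virus-caused growth loss, again on retest; inactive = the rest.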

Test system: CEM cells HIV-1 protection, formazan growth assay
Test: NCI AIDS Antiviral Assay
Details: for IC50: measured here: growth of uninfected CEM cells
Description: The ability of compounds to protect human CEM cells from HIV-1 infection is measured as a screen for new compounds capable of inhibiting the HIV virus. Five concentrations of drug were tested on uninfected and infected cells and cell growth was measured using a soluble formazan assay. […] Compounds that provided at least 50% protection were retested. Compounds that provided at least 50% protection on retest were listed as moderately active. Compounds that reproducibly provided 100% protection were listed as confirmed active. […] Note that the inability to provide protection could be due to toxicity.

Structure (SMILES)	EC50	IC50	outcome
O=C(O)c1ccc(N=Nc2ccc(/C=C/c3ccc(N=Nc4ccc(C(=O)O)cc4O)cc3S(=O)(=O)O)c(S(=O)(=O)O)c2)c(O)c1	> 513 µM	4.27 µM	
CCCCCCCCOCC(O)COC(C)C (stereo not given)	> 200 µM	115 µM	
O=C(O)c1c(Br)c(Br)c(Br)c(Br)c1-c1c2ccc(=O)cc-2oc2cc(O)ccc12	> 200 µM	28.2 µM	
S=C(S)N1CCOCC1	> 200 µM	0.724 µM	
O=C1c2ccccc2C(=O)c2c1ccc1c2N=C(c2ccc(Br)cc2)CC(c2cccc3ccccc23)N1 (stereo not given)	> 64.6 µM	> 64.6 µM	
COc1ccccc1NC(=O)C1=C(C)NC(C)=C(C(=O)Nc2ccccc2OC)C1c1ccc(C(C)C)cc1			inactive
O=C1/C(=N\O)S(=O)(=O)c2ccccc21			inactive
Cc1ccc(SSc2ccc(C)cc2[N+](=O)[O-])c([N+](=O)[O-])c1	> 200 µM	9.33 µM and 14.5 µM	
CC(=O)OCC1OC(n2c(=O)[nH]c(=O)c3n[nH]nc32)C(OC(C)=O)C(OC(C)=O)C1OC(C)=O (stereo not given)	> 269 µM	> 269 µM	
CN(C)CC(CN(C)C)c1cccc(C(CN(C)C)CN(C)C)n1	> 741 µM	> 741 µM	
C/C(N=NS(=O)(=O)c1c(C)cc(C)cc1C)=C1\C=CC=CN1O			inactive
CCOC(=O)c1c(N2CCOCC2)[nH]c(=O)c(C(c2cccs2)c2c(O)c(C(=O)OCC)c(N3CCOCC3)[nH]c2=O)c1O	> 200 µM	> 200 µM	
c1ccc2c(c1)CCc1[nH]c3c(c1-2)-c1ccccc1CC3	> 200 µM	30.9 µM	
CCCCCCCCCCCCCCCC(=O)OCCOCCOCCOCCOCCOC(=O)CCCCCCCCCCCCCCC			inactive
C[N+](C)(C)CC1CCC(C[N+](C)(C)C)C1=NO (stereo not given)	> 501 µM	> 501 µM	
COc1ccccc1NC(=O)c1nc2ccc([N+](=O)[O-])cc2nc1C	> 148 µM	> 148 µM	
Cc1ccc(C(=O)/C(C#N)=C/Nc2c(C)n(C)n(-c3ccccc3)c2=O)cc1	> 200 µM	> 200 µM	
CCOc1ccc(NC(=S)N/C=C(/C#N)C(N)=O)cc1	> 200 µM	158 µM	
CC1(C)N([O-])[N+](=O)C1(C)O (stereo not given)	> 200 µM	> 200 µM	
COc1ccc(-n2c(N)c(C#N)[nH]c2=O)cc1	> 200 µM	> 200 µM	
O=c1[nH]c2ccccc2nc1CBr	> 200 µM	2.82 µM	

Structure (SMILES)	EC50	IC50	outcome
O=C(NNC(=O)c1ccncc1)c1ccncc1	> 200 µM	> 200 µM	
COC(=O)C1CC(C(=O)OC)c2nc3cc(C)ccc3nc21 (stereo not given)	> 437 µM	> 437 µM	
[O-]c1on[n+]2c1c(Nc1ccc(Cl)cc1)nc1ccccc12	> 115 µM	> 115 µM	
ClC1(c2ccccc2)c2ccc(Br)cc2-c2cc(Br)ccc21	> 200 µM	5.75 µM	
C=C1c2c(Cl)ccc(O)c2C(O)=C2C(=O)C3(O)C(O)=C(C(N)=O)C(=O)C(N(C)C)C3C(O)C12 (stereo not given)	> 200 µM	11 µM	
Cc1cc2nc3c(C(O)C(O)C(O)CO)nn(-c4ccc(F)cc4)c3nc2cc1C (stereo not given)	89.1 µM	> 200 µM	
OCCN1CCN(CCO)Cc2ccccc2OCCOc2ccccc2C1	> 245 µM	97.7 µM	
C[n+]1c2ccccc2c(CNc2ccc(S(=O)(=O)N=C(N)N)cc2)c2ccccc21			inactive
OCc1ccc2c(c1)CC1(Cc3ccc(/C=N/O)cc3C1)C2 (stereo not given)	> 200 µM	0.891 µM	
C[Si](C)(C)OC1c2[nH]c3ccccc3c2CN2C(=O)CCC12 (stereo not given)	> 200 µM	> 200 µM	
CCCCS(=N)(=O)CC[C@H](N)C(=O)O (stereo not given in full)	> 562 µM	214 µM	
CCOC(=O)NC(O)C(Cl)(Cl)Cl (stereo not given)	> 200 µM	> 200 µM	
O=C1C(/C=C/c2ccc(Cl)cc2)=NNC2N1N=C1NC(=O)C3(NN12)c1ccccc1-c1ccccc13 (stereo not given)	> 200 µM	132 µM	
COC1CCC(C(C)O)OO1 (stereo not given)	> 200 µM	33.9 µM	
CCN(CC)c1c(C(=O)/C=C/c2ccc(OC)cc2)c(-c2ccccc2)nn(C)c1=O	> 9.12 µM	> 9.12 µM	
CC12CCCCC1=C(F)C(F)(F)S2 (stereo not given)	> 200 µM	115 µM	
O=C(NN1C(=O)C(Cl)C1c1cccc([N+](=O)[O-])c1)c1ccccc1O (stereo not given)	> 27.5 µM	> 27.5 µM	
CC(=O)Nc1c2sscc-2n(C)c1=O	> 16.6 µM	0.891 µM	
O=C(O)/C=C/C(=O)Nc1ncn[nH]1	> 1380 µM	1320 µM	
C[C@@H]1C[C@@H](O)[C@@]2(O)C13CC(=O)OC(C3)[C@@H](C)[C@@]2(C)CO (stereo not given in full)	> 200 µM	> 200 µM	
CN1C/C(=C\c2cccs2)C(O)/C(=C/c2cccs2)C1 (stereo not given)	> 200 µM	115 µM	

Structure (SMILES)	EC50	IC50	outcome
COc1ccc(Cc2nn(C3OC(COC(C)=O)C(OC(C)=O)C(OC(C)=O)C3OC(C)=O)c(=S)n(-c3ccc(OC)cc3)c2=O)cc1 (stereo not given)			inactive
Cc1ccnc(NC(=O)Nc2ccc(F)c([N+](=O)[O-])c2)c1	> 200 µM	> 200 µM	
COC1/C=C/OC2(C)Oc3c(C)c(O)c4c(O)c(c(/C=N/N5CC(C)N(Cc6ccccc6)C(C)C5)c(O)c4c3C2=O)NC(=O)C(C)=C/C=C/C(C)C(O)C(C)C(O)C(C)C(OC(C)=O)C1C (stereo not given)	> 200 µM	3.09 µM	
COc1ccc2nc3c([N+](=O)[O-])ccc4c3c(c2c1)N=CN4CCN(C)C	> 100 µM	1.02 µM	
Cc1c(C)c2c(c(N)c1C#N)C(=O)N(OS(=O)(=O)c1ccccc1)C2=O	> 151 µM	25.7 µM	
COCc1nc(C#N)c(N)o1	> 200 µM	> 200 µM	
CNc1ccc(C=C2C=CC=C2)cc1	> 74.1 µM	39.8 µM	
Cc1ccc(NC(=O)c2cc(S(=O)(=O)n3cc[nH]c3=O)c(S)cc2Cl)cc1	> 200 µM	> 200 µM	
NC(=O)CC[C@@H]1NC[C@H](C(O)C(O)C(O)CO)OC1=O (stereo not given in full)	> 851 µM	> 851 µM	
CNn1c(-c2ccccc2)n[nH]c1=O	110 µM	151 µM	
C=CC(CCC(C)O)[Si](C)(C)C (stereo not given)	> 977 µM	> 977 µM	
O=C1C=CC(=O)[C@H]2C3C=CC(C4C3C3(Cl)C(Cl)=C(Cl)[C@]4(Cl)C3(Cl)Cl)[C@@H]12 (stereo not given in full)	> 200 µM	12 µM	
O=C(O)/C=C/c1ccc(O)c(O)c1	> 1380 µM	66.1 µM	
CC(=O)O[C@H]1CC[C@H]2[C@@H]3CCC4=C(C(=O)C=CC4(C)OC(C)=O)[C@H]3CC[C@]12C (stereo not given in full)	> 200 µM	13.8 µM	
O=C1/C(=C\c2ccc(Cl)cc2)SC2SC=C(c3ccc([N+](=O)[O-])cc3)N12 (stereo not given)	> 200 µM	26.3 µM	
COc1cc2c3c(c1)SC(c1ccccc1)C(=O)N3CCN2 (stereo not given)	> 200 µM	14.1 µM	
O=C1NC(=O)C(=Cc2cccnc2)C(=O)N1	> 200 µM	> 200 µM	
Cc1ccc(-c2c3nc(c(-c4ccc(C)cc4)c4ccc([nH]4)c(-c4ccc(C)cc4)c4nc(c(-c5ccncc5)c5ccc2[nH]5)C=C4)C=C3)cc1.Cc1ccc(-c2c3nc(c(-c4ccc(C)cc4)c4ccc([nH]4)c(-c4ccc(C)cc4)c4nc(c(-c5ccncc5)c5ccc2[nH]5)C=C4)C=C3)cc1.O=S(=O)([O-])C(F)(F)F.[Pd+2].c1ccc([PH+](CCC[PH+](c2ccccc2)c2ccccc2)c2ccccc2)cc1	> 50.1 µM	3.47 µM	
NC(=O)c1c([N+](=O)[O-])cc(C(F)(F)F)cc1[N+](=O)[O-]			inactive
